Structures are written as SMILES. Activity calls are given as the source filed them.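 The calls were made as follows: active = half-maximal concentration for changing protein binding to DNA, from the fitted dose curve, below 10 micromolar; inactive = the rest.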

As usually defined, the IC50 is the concentration at which inhibition is half-maximal.

Sequence of Nuclear receptor subfamily 1 group D member 1 (Homo sapiens) (P20393 whole entry, looked up): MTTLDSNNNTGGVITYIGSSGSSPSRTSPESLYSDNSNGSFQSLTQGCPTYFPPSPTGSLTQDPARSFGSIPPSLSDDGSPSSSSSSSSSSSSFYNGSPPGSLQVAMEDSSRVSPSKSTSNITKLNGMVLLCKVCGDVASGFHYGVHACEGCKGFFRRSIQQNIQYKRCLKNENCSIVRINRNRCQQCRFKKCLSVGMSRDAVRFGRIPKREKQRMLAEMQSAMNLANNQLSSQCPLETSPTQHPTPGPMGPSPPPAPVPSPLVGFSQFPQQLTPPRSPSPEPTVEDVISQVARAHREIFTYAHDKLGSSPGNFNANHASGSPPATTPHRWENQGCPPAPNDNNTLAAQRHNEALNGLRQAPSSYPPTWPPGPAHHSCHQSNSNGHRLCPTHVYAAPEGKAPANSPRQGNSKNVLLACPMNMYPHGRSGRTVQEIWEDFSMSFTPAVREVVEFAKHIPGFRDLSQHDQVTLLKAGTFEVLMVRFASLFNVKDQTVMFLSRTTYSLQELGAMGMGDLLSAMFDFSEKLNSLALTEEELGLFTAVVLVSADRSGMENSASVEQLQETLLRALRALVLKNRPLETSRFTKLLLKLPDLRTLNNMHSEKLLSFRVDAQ

This assay concerns the target Nuclear receptor subfamily 1 group D member 1 (Homo sapiens) (UniProt P20393). In words: Rev-erbα–DNA interaction modulators – biochemical, FITC-DNA, fluorescence polarization, dose response (AID 1259321). The settings on record: Rev-erb alpha-FITC-DNA binding. A general note: Fluorescence polarisation rises when a labelled molecule tumbles more slowly, as on binding a larger partner.
As to `COc1cccc(-n2c([S-])c(C(=O)Nc3ccc(S(=O)(=O)N4CCOCC4)cc3)[n+]3cc(C(N)=O)ccc23)c1`, the IC50 is > 40 µM (inactive).

As to `CCOC(=O)c1sc(NC(=O)c2ccc(S(=O)(=O)N(C)C)cc2)nc1C`, the IC50 entry was “inactive”.

For `COC(=O)c1ccc(NC(=O)c2cn(-c3ccccc3)nc2-c2ccncc2)cc1`, the IC50 is > 40 µM (inactive).

Turning to `CCOC(=O)/C(C#N)=C/C=C1\C=Cc2ccccc2N1CC`, the IC50 is > 40 µM (inactive).

For `COC(=O)c1ccc2nc(Nc3nc4c(F)cc(F)cc4s3)sc2c1`, the IC50 was 2.14 µM.

For the compound `CCCCCC[n+]1ccccc1/C=C/c1ccc(N(C)C)cc1`, the IC50 was 7.24 µM.

For the compound `CCOc1ccc(NC(=O)CSc2ncnc3c2sc2ccccc23)cc1`, the IC50 is 6.32 µM.

`COc1ccc(C(=O)Nc2nc3ccc4nc(C)sc4c3s2)cc1`: the IC50 was 9.47 µM.

As for `CCCN1C(=O)S/C(=C/c2ccc(N3CCOCC3)o2)C1=O`, the IC50 was 5.84 µM.

As to `O=[N+]([O-])c1ccc(O)c(-c2cc(C(F)(F)F)nc(-c3ccccc3)n2)c1`, the IC50 was > 40 µM (inactive).

Take `CN(C)c1nc(-c2cccnc2)nc(-c2ccccc2)c1C#N`: the IC50 result is “inactive”.

For `CC(OC(=O)c1cc2c(ccc3ccccc32)oc1=O)c1nc2ccccc2s1` (stereo unspecified), the IC50 result is “inactive”.

Consider `COc1ccccc1NC(=O)COC(=O)c1ccc2c(c1)OCCO2`, for which the IC50 was 1.01 µM.

Turning to `CN1C(=O)c2ccc(C(=O)Nc3ccc(Br)cn3)cc2C1=O`, the IC50 was > 40 µM (inactive).

Regarding `O=C(COC(=O)c1sc2ccccc2c1Cl)Nc1ncc(Cl)cc1Cl`, the IC50 is > 40 µM (inactive).

For `COC(=O)c1ccc(NC(=O)c2cc(Cl)ccc2OC)cc1`, the IC50 entry was “inactive”.

For `COc1ccc2c(c1)oc(=O)c1c3ccccc3[nH]c21`, the IC50 was > 40 µM (inactive).

Regarding `COc1ccccc1N/C(N)=N/c1nc(CSc2ccc(C)cc2)cc(=O)[nH]1`, the concentration for half-maximal inhibition (IC50) was 4.19 µM.

Take `CN1/C(=C\C=C2/C(=O)Oc3ccccc3C2=O)C(C)(C)c2ccccc21`: the IC50 was 4.74 µM.

With `CCOc1cc2[nH]c(=S)n(CCC(=O)N3CCc4ccccc4C3)c(=O)c2cc1OCC`, the IC50 entry was “inactive”.

For the compound `C=CCn1c(C)c(/C=C/c2cc[n+](C)cc2)c2ccccc21`, the IC50 is 9.96 µM.

Regarding `Cc1cc(C)c(NC(=O)COc2ccccc2C(=O)Nc2ccc3c(c2)oc2ccccc23)c(C)c1`, the IC50 is > 40 µM (inactive).

As to `Cc1c(Cl)cc(C(C)C)c(O)c1CN1CCOCC1`, the IC50 is > 40 µM (inactive).

In the case of `COc1cc(C(=O)Nc2cccc(-c3nc4cc(C)ccc4o3)c2)cc(OC)c1OC`, the IC50 is 4.32 µM.

`COC(=O)c1sc2nc3c(cc2c1N)C(=O)CC(C)(C)C3`: the IC50 result is “inactive”.

Take `O=C(CSc1nc2c(c(C(F)(F)F)n1)CCc1ccccc1-2)NCc1ccccc1`: the IC50 is 4.21 µM.

For the compound `O=C(Nc1ccccc1C(F)(F)F)OCCN1C(=O)CCC12CCC(c1ccccc1)CC2` (stereo unspecified), the IC50 was 7.99 µM.

`Fc1c(F)c(C(F)(F)F)c(F)c(F)c1N1CCN(c2ccc3nnc(C(F)(F)F)n3n2)CC1`: the IC50 was 1.71 µM.

With `CCOC(=O)c1nn(-c2ccc(F)cc2)c(=O)cc1OCC(=O)Nc1cccc(C)c1`, the IC50 is 9.68 µM.

Turning to `O=c1c2ccccc2nc2sc(Nc3ccc(F)cc3)nn12`, the IC50 result is “inactive”.

With `CC[n+]1c(/C=C/c2c[nH]c3ccccc23)ccc2cc(C)ccc21`, the IC50 entry is “inactive”.

On to `CCCCOc1ccc(N(CC(=O)NC2CCCCC2)C(=O)c2snc(C(N)=O)c2N)cc1`, for which the IC50 was > 40 µM (inactive).

Turning to `Cc1ccc(-c2nnc(NCc3nc4ccccc4[nH]3)c3ccccc23)cc1S(=O)(=O)N(C)C`, the IC50 result was “inactive”.

Turning to `CCN1/C(=C\c2ccc3ccccc3[n+]2CC)Sc2cc(C)ccc21`, the IC50 was 2.67 µM.

Regarding `COc1ccccc1NC(=O)c1cnc(SCC(=O)NCCc2ccccc2)n(C)c1=O`, the concentration for half-maximal inhibition (IC50) was 4.36 µM.

As for `CCOc1ccc(NC(=O)CSc2nc(C3CC3)nc3ccccc23)cc1`, the IC50 was 5.32 µM.

In the case of `COc1ccc(-c2ccc3sc4ccccc4c(=O)c3c2)cn1`, the half-inhibitory concentration (IC50) is 3.24 µM.

Turning to `COc1ccc2cc(C(=O)COC(=O)COc3ccc4c(C)cc(=O)oc4c3)ccc2c1`, the IC50 is 4.26 µM.

For the compound `CCOc1ccc2nc(SCC(=O)N3c4ccccc4Sc4ccccc43)c(C#N)cc2c1`, the IC50 is 6.88 µM.

As to `O=S(=O)(N1CCCCC1)N1CCN(CC(O)COc2ccc3cc(Br)ccc3c2)CC1` (stereo unspecified), the IC50 is > 40 µM (inactive).

Consider `c1cnc(SCC2CCCCC2)c(-c2nc3ccccc3[nH]2)c1`, for which the IC50 was 7.2 µM.

On to `COC(=O)c1cccc(Cn2ccc3ccc(-c4ccc5ccn(C(=O)c6ccccc6C)c5c4)cc32)c1`, for which the IC50 is 2.94 µM.

Take `O=C(NCc1ccco1)c1ccc(Cn2c(=O)c3ccccc3n(Cc3cccc(F)c3)c2=O)cc1`: the half-maximal inhibitory concentration (IC50) is 2.43 µM.

As to `Cc1nc(SCc2nc3ccccc3[nH]2)c2oc3cc(Br)ccc3c2n1`, the IC50 was 9.38 µM.

With `COC(=O)Cn1c(C)c(/C=C/c2cc[n+](C)cc2)c2ccccc21`, the IC50 is 2.25 µM.

As to `COC(=O)c1ccc(Cn2ccc3ccc(-c4ccc5ccn(C(=O)c6cccc(OC)c6)c5c4)cc32)cc1`, the IC50 entry was “inactive”.

With `COc1cc(C(=O)Nc2nc(-c3ccc(Cl)cc3)c(C)s2)ccc1OCC(=O)Nc1ccc(F)cc1`, the IC50 is > 40 µM (inactive).

With `COc1cccc(C(=O)Nc2ccc(-c3nc4ccccc4o3)c(O)c2)c1`, the IC50 was > 40 µM (inactive).

Regarding `C/C(=N\N(Cc1ccccc1)c1ccccc1)c1ccncc1`, the IC50 was 6.97 µM.

As to `COc1ccc(-c2ccc(-c3noc(-c4ccccc4F)n3)c(OC)n2)cc1`, the IC50 is 1.33 µM.

With `Cc1sc2nc(N3CCOCC3)[nH]c(=O)c2c1-c1ccccc1`, the IC50 was 7.66 µM.

As to `CCNC(=O)Nc1ccc2c(c1)C(=O)N(C)[C@H]1CC[C@H](CC(=O)N[C@H](C)c3ccccc3)O[C@@H]1CO2`, the IC50 entry is “inactive”.

Take `Cc1nn(-c2ccc(Cl)cc2)c2sc(C(=O)c3c(N)n(C)c(=O)n(C)c3=O)cc12`: the half-maximal inhibitory concentration (IC50) was 8.34 µM.

For `CCC(=O)c1cn(CC(=O)Nc2ccccc2Cl)c2ccccc12`, the concentration for half-maximal inhibition (IC50) was 3.98 µM.

Consider `CCc1cc2cc(C)ccc2nc1SCC(=O)NC1CCCC1`, for which the IC50 was 3.66 µM.

On to `COc1ccc(Cl)cc1CC1(C)C(=O)Nc2ccc(-c3ccccc3OC)cc21` (stereo unspecified), for which the half-maximal inhibitory concentration (IC50) was 3.44 µM.

For the compound `C=CCNC(=O)c1ccc(Cn2c(=S)[nH]c3cc4c(cc3c2=O)OCO4)cc1`, the IC50 result is “inactive”.

With `O=C(OCCN1C(=O)c2cccc3c(N4CCOCC4)ccc(c23)C1=O)c1ccc(Cl)cc1Cl`, the IC50 is > 40 µM (inactive).

With `CCNc1ccc2noc3c2c1C(=O)c1ccccc1-3`, the IC50 is > 40 µM (inactive).

Consider `Fc1ccc2nc(Nc3nc4c(F)cc(F)cc4s3)sc2c1`, for which the IC50 was 7.05 µM.

Take `CCN(CC)C(=O)CSc1nc(N)c(C#N)c(-c2cccs2)c1C#N`: the half-maximal inhibitory concentration (IC50) was 8.24 µM.

As for `CC(=O)Nc1sc(C)c(C)c1C(=O)OCC(=O)N(Cc1ccccc1)C(C)C`, the IC50 result was “inactive”.

Turning to `CCn1cc(/C=C/c2cc[n+](C)cc2)c2ccccc21`, the IC50 is 3.25 µM.

In the case of `CC(C)Cc1nc2sc3c(SCC(N)=O)ncnc3c2c2c1CCC2`, the IC50 was 3.65 µM.

`CN(C)c1ccc(C=Cc2nccc3ccccc23)cc1`: the IC50 is > 40 µM (inactive).

As to `CN1C(=O)C(=Cc2ccc(N3CCCCC3)o2)C(=O)N(C)C1=S`, the IC50 result is “inactive”.

Consider `C=CCNc1nc(NCc2ccc(NC(C)=O)cc2)c2sc(-c3ccccc3)cc2n1`, for which the IC50 is 5.43 µM.

In the case of `CCN1C(=O)/C(=C/C=C2/SCCN2C)SC1=S`, the IC50 result was “inactive”.

For the compound `N#Cc1cc(C#N)c(N2CCN(c3cccc(Cl)n3)CC2)nc1N`, the IC50 was 5.79 µM.

Take `Nc1c2c(nc3ccccc13)CCN(Cc1ccccc1)C2`: the IC50 result is “inactive”.

For `CC1CC1C(=O)Nc1nc(-c2cccs2)c(-c2cccs2)s1` (stereo unspecified), the 50% inhibitory concentration (IC50) is 5.22 µM.

With `CC(C)Nc1nc(-c2cccnc2)nc(-c2ccc(Cl)cc2)c1C#N`, the IC50 was > 40 µM (inactive).

In the case of `CCN(CC)C(=O)CSc1nc2cc3c(cc2c(=O)n1Cc1ccc(OC)cc1)OCO3`, the IC50 is > 40 µM (inactive).

Take `CC1=NN(c2ccccc2)C(=O)/C1=C\C=C1/N(C)c2ccccc2C1(C)C`: the IC50 was > 40 µM (inactive).

With `O=C(Nc1ccc(O)c(-c2nc3ccccc3s2)c1)C1=COCCO1`, the IC50 result was “inactive”.

Take `COc1ccc(-c2cc(-c3ccc(OC)cc3)c(C#N)c(SC)n2)cc1`: the IC50 was 8.29 µM.

With `CCOC(=O)c1ccc2nc(Nc3nc4ccc(F)cc4s3)sc2c1`, the IC50 is 7.02 µM.

For `CCOCCCn1c(=S)[nH]c2cc(C(=O)NCCc3ccccc3)ccc2c1=O`, the IC50 is 3.56 µM.

On to `COc1ccc(-n2nc(C(=O)NCC(=O)Nc3cc(Cl)c(OC)cc3OC)c3ccccc3c2=O)cc1`, for which the IC50 result was “inactive”.

On to `CCN1C(=O)c2cccc3c(N)ccc(c23)C1=O`, for which the IC50 is > 40 µM (inactive).

Take `CCc1cc2ccc(OC)cc2nc1SCC(=O)Nc1cc(C)on1`: the IC50 was > 40 µM (inactive).

Regarding `O=C(NCCc1ccccc1)c1ccc2c(c1)S(=O)(=O)c1cc(Cl)ccc1C2=O`, the IC50 was 1.84 µM.

Take `CCCOc1ccc(C(=O)Nc2nc(C)c(Cc3ccc4c(c3)OCO4)s2)cc1`: the IC50 result is “inactive”.

On to `COc1ccc2[nH]c(C(=O)Nc3ccccc3Cl)cc2c1`, for which the IC50 is > 40 µM (inactive).

As for `COc1ccc(/C=C2/SC(=O)N(CCC(=O)Nc3ccccc3)C2=O)cc1OC`, the IC50 is 9.31 µM.

With `COc1ccc(-c2ccc3c(c2)c(Sc2ccccc2)c(-c2cc(OC)cc(OC)c2)n3C)cc1`, the IC50 was 6.89 µM.

On to `Cc1ccc(Cl)cc1N1CCN(S(=O)(=O)c2ccc(-c3ccc(=O)[nH]n3)o2)CC1`, for which the IC50 result was “inactive”.

Take `Cc1ccc(-n2c(SCC(=O)Nc3cccc(S(=O)(=O)NC4=NCCCCC4)c3)nc3ccccc3c2=O)cc1`: the IC50 entry was “inactive”.

For `O=C1c2cccc3c(N4CCCCC4)ccc(c23)C(=O)N1CCO`, the IC50 entry was “inactive”.

`CCCCCCNC(=O)C(C#N)c1nc2ccccc2nc1N1CCOCC1` (stereo unspecified): the IC50 was > 40 µM (inactive).

For the compound `CCN1/C(=C/c2ccc3cccc(C)c3[n+]2CC)Sc2ccccc21`, the IC50 is 2.04 µM.
